Data set [1] deals with T1, CYP2C8 (Homo sapiens, UniProt P10632).
T1 sequence (P10632 1-490): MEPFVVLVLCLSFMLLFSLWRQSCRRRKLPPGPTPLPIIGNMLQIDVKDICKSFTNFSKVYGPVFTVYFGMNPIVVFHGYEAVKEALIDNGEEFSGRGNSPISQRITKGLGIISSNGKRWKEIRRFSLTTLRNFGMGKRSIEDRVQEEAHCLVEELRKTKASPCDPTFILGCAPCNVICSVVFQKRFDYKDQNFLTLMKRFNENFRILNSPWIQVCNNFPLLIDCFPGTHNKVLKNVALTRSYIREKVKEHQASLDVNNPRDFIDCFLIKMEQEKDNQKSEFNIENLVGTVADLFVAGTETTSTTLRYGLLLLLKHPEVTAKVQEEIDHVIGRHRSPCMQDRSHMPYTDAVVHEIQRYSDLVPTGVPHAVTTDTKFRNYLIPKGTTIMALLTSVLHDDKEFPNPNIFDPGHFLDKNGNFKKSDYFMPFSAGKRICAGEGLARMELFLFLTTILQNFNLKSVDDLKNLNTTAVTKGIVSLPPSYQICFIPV
In words: in vitro. Particulars: both, microsomes, pH 7.4.

In data set [2] the target is T2, OCT2 (Homo sapiens, UniProt O15244).
T2 sequence (O15244 1-555): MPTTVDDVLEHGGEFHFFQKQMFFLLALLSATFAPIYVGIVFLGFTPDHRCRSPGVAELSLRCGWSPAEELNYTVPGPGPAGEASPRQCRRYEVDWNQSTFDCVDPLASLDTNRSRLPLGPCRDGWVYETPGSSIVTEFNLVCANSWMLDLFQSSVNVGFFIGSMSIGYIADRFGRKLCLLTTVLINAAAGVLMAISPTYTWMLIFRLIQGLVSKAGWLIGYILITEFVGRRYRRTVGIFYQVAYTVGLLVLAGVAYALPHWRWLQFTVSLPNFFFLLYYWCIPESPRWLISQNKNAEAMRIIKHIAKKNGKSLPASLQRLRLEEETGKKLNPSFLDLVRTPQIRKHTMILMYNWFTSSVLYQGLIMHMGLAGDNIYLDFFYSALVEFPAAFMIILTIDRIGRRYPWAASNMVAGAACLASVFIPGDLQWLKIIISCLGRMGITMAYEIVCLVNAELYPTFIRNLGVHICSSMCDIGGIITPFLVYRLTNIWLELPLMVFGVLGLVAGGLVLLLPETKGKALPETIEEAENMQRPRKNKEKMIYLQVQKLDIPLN
The note with it: 2 min/5 μM. Here is the method: All experiments were conducted in duplicate (n=2). The cells were incubated for the indicated time in a humidified incubator (37° C. 5% CO2). […] The uptake incubation was stopped by two washes with ice-cold HBSSg.

Data set [3] has as its system human hepatocytes. Description: metabolic stability in cryopreserved hepatocytes. It is filed as in vitro ADME. As for the experimental part:
(§1) Mixed-gender human cryopreserved hepatocytes, male Sprague-Dawley rat cryopreserved hepatocytes, male CD-1 mouse cryopreserved hepatocytes, male beagle dog cryopreserved hepatocytes, and male cynomolgus monkey cryopreserved hepatocytes were used for the study. The hepatocytes were thawed, pooled into Krebs Henseleit buffer (KHB, pH 7.4), and kept on ice prior to the experiments. […] Each experiment was performed in triplicate. The final DMSO content in the incubation mixture was ≤0.1%. […] Positive controls, testosterone (1 μM) and 7-hydroxycoumarin (7-HC) (100 μM), were performed in parallel to confirm the activity of the hepatocytes. […] Aliquots of testosterone were withdrawn (n=1) at 0, 5, 15, 30, 60, and 120 minutes. Aliquots of 7-HC were withdrawn (n=1) at 0 and 15 minutes. The reaction was immediately terminated by adding three volumes of ice-cold MeCN containing IS. The samples were then mixed and spun by centrifuge to precipitate proteins. An aliquot of the supernatant was then diluted with water. Calibration standards for the analysis of 7-HC metabolites were prepared in matched matrix. […] All samples were analyzed by LC-MS/MS. The peak area response ratio (PARR) vs. IS was compared to the PARR at time 0 to determine the percent remaining at each time point. Half-lives and clearance values were calculated using GraphPad software, fitting to a single-phase exponential decay equation.
(§2) Mixed-gender human cryopreserved hepatocytes, male Sprague-Dawley rat cryopreserved hepatocytes, male CD-1 mouse cryopreserved hepatocytes, male beagle dog cryopreserved hepatocytes, and male cynomolgus monkey cryopreserved hepatocytes were thawed and pooled into KHB buffer (pH 7.4) and kept on ice prior to the experiments. […] Each experiment was performed in triplicate. The final DMSO content in the incubation mixture was ≤0.1%.
(§3) Positive controls, testosterone (1 μM) and 7-hydroxycoumarin (7-HC) (100 μM), were performed in parallel to confirm the activity of the hepatocytes. […] Aliquots of testosterone were withdrawn (n=1) at 0, 5, 15, 30, 60, and 120 minutes. Aliquots of 7-HC were withdrawn (n=1) at 0 and 15 minutes. The reaction was immediately terminated by adding three volumes of ice-cold MeCN containing IS. The samples were then mixed and spun by centrifuge to precipitate proteins. An aliquot of the supernatant was then diluted with water. Calibration standards for the analysis of 7-HC metabolites were prepared in matched matrix. […] All samples were analyzed by LC-MS/MS. Analytical conditions are outlined below. The peak area response ratio (PARR) vs. IS was compared to the PARR at time 0 to determine the percent remaining at each time point. Half-lives and clearance values were calculated using GraphPad software, fitting to a single-phase exponential decay equation.

A short description of data set [4]: metabolic stability in cryopreserved hepatocytes. The data set is classed as in vitro ADME, cynomolgus monkey. As for the experimental part: as §1, §2, §3
Data set [5] in a line: metabolic stability in cryopreserved hepatocytes. It is filed as in vitro ADME, dog. As for the experimental part:
Mixed-gender human cryopreserved hepatocytes, male Sprague-Dawley rat cryopreserved hepatocytes, male CD-1 mouse cryopreserved hepatocytes, male beagle dog cryopreserved hepatocytes, and male cynomolgus monkey cryopreserved hepatocytes were used for the study. The hepatocytes were thawed, pooled into Krebs Henseleit buffer (KHB, pH 7.4), and kept on ice prior to the experiments. […] Each experiment was performed in triplicate. The final DMSO content in the incubation mixture was ≤0.1%. […] Aliquots of testosterone were withdrawn (n=1) at 0, 5, 15, 30, 60, and 120 minutes. Aliquots of 7-HC were withdrawn (n=1) at 0 and 15 minutes. The reaction was immediately terminated by adding three volumes of ice-cold MeCN containing IS. The samples were then mixed and spun by centrifuge to precipitate proteins. An aliquot of the supernatant was then diluted with water. Calibration standards for the analysis of 7-HC metabolites were prepared in matched matrix. […] All samples were analyzed by LC-MS/MS. The peak area response ratio (PARR) vs. IS was compared to the PARR at time 0 to determine the percent remaining at each time point. Half-lives and clearance values were calculated using GraphPad software, fitting to a single-phase exponential decay equation.
as §2
Aliquots of testosterone were withdrawn (n=1) at 0, 5, 15, 30, 60, and 120 minutes. Aliquots of 7-HC were withdrawn (n=1) at 0 and 15 minutes. The reaction was immediately terminated by adding three volumes of ice-cold MeCN containing IS. The samples were then mixed and spun by centrifuge to precipitate proteins. An aliquot of the supernatant was then diluted with water. Calibration standards for the analysis of 7-HC metabolites were prepared in matched matrix. […] All samples were analyzed by LC-MS/MS. Analytical conditions are outlined below. The peak area response ratio (PARR) vs. IS was compared to the PARR at time 0 to determine the percent remaining at each time point. Half-lives and clearance values were calculated using GraphPad software, fitting to a single-phase exponential decay equation.

The nature of data set [6]: metabolic stability in cryopreserved hepatocytes. It is filed as in vitro ADME, rat. As for the experimental part:
as §1, §2, §3

Data set [7] is described as follows: metabolic stability in cryopreserved hepatocytes. It is filed as in vitro ADME, mouse. As for the experimental part:
as §1, §2, §3

Data set [8] concerns the target CYP2D6 (Homo sapiens, UniProt P10635). Description: CYP inhibition in human liver microsomes. Also on record: from tissue; host or cells: pooled human liver microsomes, 200 donors. It is filed as in vitro ADME. Particulars: both sexes, pooled human liver microsomes, pH 7.4, HLM, read-out: % of Control Enzyme Activity. (In general: Liver microsomes are vesicles of endoplasmic reticulum, rich in cytochrome P450 enzymes.)

Data set [9] addresses CYP2C9 (Homo sapiens, UniProt P11712). In words: CYP inhibition in human liver microsomes. Particulars: both sexes, pooled human liver microsomes, pH 7.4, HLM, read-out: % of Control Enzyme Activity. It is filed as in vitro ADME. Further details: from tissue; host or cells: pooled human liver microsomes, 200 donors. Here is the method: The HLMs were stored at −80° C. until use.
Negative (vehicle) controls were conducted without a test article.

[10] abbreviates: Human cryopreserved hepatocytes, positive control 7-hydroxycoumarin 100 μM.
[11] abbreviates: Human hepatocytes, from 7-hydroxycoumarin (7-HC) 100 μM positive control.
Setting [12] is: Monkey cryopreserved hepatocytes, positive control 7-hydroxycoumarin 100 μM.
[13] abbreviates: Monkey hepatocytes, from 7-hydroxycoumarin (7-HC) 100 μM positive control.
Where [14] appears, read: Dog cryopreserved hepatocytes, positive control 7-hydroxycoumarin 100 μM.
Where [15] appears, read: Dog hepatocytes, from 7-hydroxycoumarin (7-HC) 100 μM positive control.
[16] abbreviates: Rat cryopreserved hepatocytes, positive control 7-hydroxycoumarin 100 μM.
Setting [17] is: Rat hepatocytes, from 7-hydroxycoumarin (7-HC) 100 μM positive control.
[18] abbreviates: Mouse cryopreserved hepatocytes, positive control 7-hydroxycoumarin 100 μM.
Setting [19] is: Mouse hepatocytes, from 7-hydroxycoumarin (7-HC) 100 μM positive control.

Read-outs that look alike come from different tables or passages of the source.

Chain of CYP2D6 (P10635 whole entry): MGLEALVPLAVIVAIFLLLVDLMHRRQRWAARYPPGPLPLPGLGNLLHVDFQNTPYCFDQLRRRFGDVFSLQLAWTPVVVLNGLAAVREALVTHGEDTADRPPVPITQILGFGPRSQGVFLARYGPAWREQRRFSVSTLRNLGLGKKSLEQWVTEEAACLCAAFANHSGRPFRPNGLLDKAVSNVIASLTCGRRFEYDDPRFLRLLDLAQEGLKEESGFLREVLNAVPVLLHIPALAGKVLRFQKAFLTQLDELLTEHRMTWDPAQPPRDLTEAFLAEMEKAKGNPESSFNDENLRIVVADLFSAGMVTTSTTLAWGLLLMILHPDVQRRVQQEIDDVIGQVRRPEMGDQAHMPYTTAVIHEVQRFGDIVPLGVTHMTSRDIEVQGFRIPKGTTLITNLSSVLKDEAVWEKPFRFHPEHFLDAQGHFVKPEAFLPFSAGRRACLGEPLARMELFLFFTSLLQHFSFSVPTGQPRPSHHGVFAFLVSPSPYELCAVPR
Chain of CYP2C9 (P11712 whole entry): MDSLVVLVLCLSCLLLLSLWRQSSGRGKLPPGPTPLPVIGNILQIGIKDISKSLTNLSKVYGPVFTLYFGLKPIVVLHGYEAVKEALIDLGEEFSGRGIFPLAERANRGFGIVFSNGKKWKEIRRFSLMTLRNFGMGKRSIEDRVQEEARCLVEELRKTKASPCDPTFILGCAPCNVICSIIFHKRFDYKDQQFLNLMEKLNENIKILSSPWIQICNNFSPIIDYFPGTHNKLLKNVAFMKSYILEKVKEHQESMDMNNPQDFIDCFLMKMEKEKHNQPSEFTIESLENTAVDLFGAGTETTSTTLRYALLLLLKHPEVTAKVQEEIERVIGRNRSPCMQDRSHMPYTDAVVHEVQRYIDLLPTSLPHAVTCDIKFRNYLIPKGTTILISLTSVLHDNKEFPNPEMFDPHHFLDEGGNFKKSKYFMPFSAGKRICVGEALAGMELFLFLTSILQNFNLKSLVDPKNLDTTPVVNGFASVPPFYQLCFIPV

In data set [1], `CC(C)(O)c1ccccc1CC[C@@H](SCC1(CC(=O)O)CC1)c1cccc(/C=C/c2ccc3ccc(Cl)cc3n2)c1` [Montelukast, montelukast] gave an activity at 20 min, 0.123 µM of 54%; an activity at 20 min, 0.37 µM of 26.8%; an activity at 20 min, 3.33 µM of 4.22%; an activity at 20 min, 10 µM of 2.17%.

With `C[n+]1ccc(-c2ccccc2)cc1` [MPP, MPP+], the “Substrate Assessment” value in data set [2] is “Positive (Influx Rate Ratio≥2.0: Positive)”. Besides, the “Influx Rate AVG” value in data set [2] (OCT2 cells) is on record as 403 pmol/minute/mg/protein; in [2] (Vector Control cells), 24.3 pmol/minute/mg/protein. For the same compound, the “Influx Rate Ratio” value in data set [2] (OCT2 vs Vector Control) is on record as 16.6.

Take `O=C(O)[C@H]1O[C@@H](Oc2ccc3ccc(=O)oc3c2)[C@H](O)[C@@H](O)[C@@H]1O` [Compound 7-HC-G]: the “Formation Rate” value in data set [3] (setting [10]) stood at 316 pmol/min/10^6 cells; in [3] (setting [11]) it was 316 pmol/min/10^6 cells; in data set [4] (setting [12]), 279 pmol/min/10^6 cells; in [4] (setting [13]) it was 279 pmol/min/10^6 cells; in data set [5] (setting [14]), 301 pmol/min/10^6 cells; in data set [5] (setting [15]), 301 pmol/min/10^6 cells. For the same compound, the “Formation Rate” value is 253 pmol/min/10^6 cells in data set [6] (setting [16]), 253 pmol/min/10^6 cells in [6] (setting [17]), 234 pmol/min/10^6 cells in [7] (setting [18]) and 234 pmol/min/10^6 cells in data set [7] (setting [19]).

Regarding `O=c1ccc2ccc(OS(=O)(=O)[O-])cc2o1.[K+]` [Compound 7-HC-S], the “Formation Rate” value was 7.74 pmol/min/10^6 cells in [3] (setting [10]); 7.74 pmol/min/10^6 cells in [3] (setting [11]); 13.3 pmol/min/10^6 cells in data set [4] (setting [12]); 13.3 pmol/min/10^6 cells in data set [4] (setting [13]); 24.5 pmol/min/10^6 cells in data set [5] (setting [14]); 24.5 pmol/min/10^6 cells in data set [5] (setting [15]). Besides, the “Formation Rate” value in [6] (setting [16]) is 34.0 pmol/min/10^6 cells; in data set [6] (setting [17]), 34 pmol/min/10^6 cells; in data set [7] (setting [18]) it was 6.36 pmol/min/10^6 cells; in [7] (setting [19]), 6.36 pmol/min/10^6 cells.

Turning to `C=C[C@H]1C[N@@]2CC[C@H]1C[C@@H]2[C@@H](O)c1ccnc2ccc(OC)cc12` [Quinidine, quinidine], the activity at 20 min, 0.123 µM in [8] (0.123 μM) was 30.6%. Besides, the activity at 20 min, 0.37 µM in data set [8] (0.370 μM) came out at 17.7%. The activity at 20 min, 3.33 µM in data set [8] (3.33 μM) came out at 8.69%. In data set [8] (10.0 μM), the activity at 20 min, 10 µM is 7.28%.

With `Nc1ccc(S(=O)(=O)Nc2ccnn2-c2ccccc2)cc1` [Sulfaphenazole, sulfaphenazole], the activity at 20 min, 0.123 µM in data set [9] (0.123 μM) is 76.9%. For the same compound, in data set [9] (0.370 μM), the activity at 20 min, 0.37 µM is 55.4%. Moreover, in data set [9] (3.33 μM), the activity at 20 min, 3.33 µM amounted to 16.3%. Moreover, in data set [9] (10.0 μM), the activity at 20 min, 10 µM was 7.69%.

For the origin of these results see patent publication US20230049952A1, “METHODS AND COMPOUNDS FOR RESTORING MUTANT P53 FUNCTION” (PMV Pharmaceuticals, Inc., priority 2020, published 2023).
